Assay results: patent publication US10138292B2, “Cell culture medium” (BIOLAMINA AB, priority 2010, dated 2018)

Legend:
human ES cells [1] = experiment: Cell adhesion assay, 1 hour (Example 1); assay type: cell-based; conditions: O3 medium without any additives, without Y-27632
Protocol: (§1) Ninety-six-well tissue cell culture plates were coated overnight at 4° C. with sterile solutions of the ECM proteins mouse LN-111 (Invitrogen), human recombinant LN-511, and human recombinant LN-521, all at a concentration of 30 μg/ml (5 μg/cm^2). For control cells, BD Matrigel™ hESC qualified (BD Biosciences) was used according to the manufacturer's instructions.
(§2) The assay was performed as described (Extracellular Matrix Protocols, 2000). Briefly, 96-well plates were coated by extracellular matrix proteins as described above and blocked by O3 medium containing bovine serum albumin. The ES cells were plated at a cell density of 600 cell/mm^2 upon extracellular matrix-coated plates and were left to adhere for either 1 hour or 1 day at the cell incubator. Non-adherent cells were washed away, and adherent cells were fixed for 20 min by 5% glutaraldehyde, stained by 0.1% Crystal Violet.

human ES cells [2] = experiment: Cell adhesion / single cell survival 1 day after plating (Example 1); assay type: cell-based; conditions: for adhesion at 1 day compared with dishes including the ROCK inhibitor: coating without additives
Protocol: as §1, §2

OCT4 = experiment: FACS analysis for OCT4; assay type: cell-based, human; conditions: after several single cell suspension passages, O3 medium
Protocol: OCT4 expression was analyzed as described in Ludwig, T. E. et al. Derivation of human embryonic stem cells in defined conditions. Nat. Biotechnol. 24, 185-187 (2006). Cells were run on FACSCalibur Flow Cytometer (Becton Dickinson). Data were analyzed with CellQuest software (Becton Dickinson).

hES cells = experiment: Cell survival assay, 24 hours (Example 2); assay type: cell-based, human
Protocol: The survival assay was performed as described for the cell adhesion assay above, except that the cells were left in the cell incubator for 24 hours. For inhibition of survival assay, the cells were kept in a medium with function blocking antibodies at the concentrations recommended by the manufacturer or pathway inhibitors at concentrations indicated in the text for 30 minutes, and then plated on the coated dishes. All the experiments were performed in quadruplicate.
Pluripotent hES cells express α1, α5, β1, β2 and γ1 laminin chains. To compare the adhesion and clonal survival of hES cells plated from single cell suspension to different coating substrata, hES cells growing as monolayers on LN-511 or as clusters on a feeder layer were trypsinized into single cell suspension in O3 medium and plated on cell culture dishes coated with Matrigel, LN-111, LN-511, LN-521 or a mixture of LN-511 and LN-521, in the absence or presence of a ROCK inhibitor (Y-27632) and analyzed after 24 hours.

human ES and iPS cells = experiment: Long-term self-renewal culture on LN-521 (Example 2); assay type: cell-based
[3] = tested on: Oct4, Nanog, SSEA4, PAX6, SOX17, SOX7; experiment: Expression of pluripotency and differentiation markers (immunofluorescence, RT-PCR, FACS); assay type: cell-based, human; conditions: similar to cells on Matrigel passed as small clumps
Protocol: For immunofluorescence studies, ES cells were cultured and fixed in 8-well slide chambers (BD Biosciences) or 96-well plate wells by 4% paraformaldehyde, permeabilized by 0.1% Triton-X and blocked by 10% bovine fetal serum (GIBCO Invitrogen Corporation) in phosphate-saline buffer (PBS) containing 0.1% Tween-20 (Sigma-Aldrich, St. Louis, http://www.sigmaaldrich.com) for one hour. Incubation with primary antibody was performed for 1.5 hours at room temperature. Incubation with secondary antibody and 4,6-diamidino-2-phenylindole (DAPI, Molecular Probes) was performed for 40 minutes. Between incubations, the specimens were washed with 0.1% Tween-20 in PBS buffer three to five times. Specimens were preserved in a fluorescence mounting medium (Dako, Glostrup, Denmark, http://www.dako.com), and observed under a fluorescence microscope (Leica, Heerbrugg, Switzerland, http://www.leica.com).
Total RNA was isolated using Absolutely RNA Microprep Kit (Stratagene, La Jolla Calif., www.stratagene.com) according to the manufacturer's instructions. cDNA was synthesized using 0.2 μg of total RNA in 20 μl reaction mixture, containing oligo(dT)12-18 primers and Superscript II reverse transcriptase (GIBCO Invitrogen Corporation), according to the manufacturer's instructions. […] All data was analyzed with 7300 System SDS Software v 1.4. […]

hES cell lines = experiment: Karyotyping; assay type: cell-based, human; conditions: HS181 12 passages and H1 10 passages in O3 medium; H1 7 passages in TeSR2
Protocol: Karyotyping of the cell lines was carried out using standard Q-banding techniques. Samples of cells were treated with colcemid KaryoMAX (0.1 μg/ml; Gibco Invitrogen Corporation) for up to 4 hours, followed by dissociation with Trypsin/EDTA solution (Gibco Invitrogen Corporation). The cells were pelleted via centrifugation and re-suspended in pre-warmed 0.0375 M KCl hypotonic solution and incubated for 10 minutes. Following centrifugation, the cells were resuspended in fixative (3:1 methanol:acetic acid). Metaphase spreads were prepared on glass microscope slides and G-banded by brief exposure to trypsin and stained with 4:1 Gurr's/Leishmann's stain (Sigma-Aldrich Co.). A minimum of 10 metaphase spreads were analyzed and additional 20 were counted.

Question: How did the “adhesion of human ES cells at 1 hour” value (human ES cells [1]) turn out when “LN-521: protein formed by joining α5, β2 and γ1 laminin chains; human recombinant, produced in HEK293 cells” was run?
Answer: The value was “roughly the same”.

Question: What about the “adhesion at 1 day compared with dishes including the ROCK inhibitor” value (human ES cells [2]) of the same substance?
Answer: The value was “similar”.

Question: What about the “adhesion at 1 day compared with dishes including the ROCK inhibitor” value (human ES cells [2]; listed as LN-532) of the same substance?
Answer: The value was “no ROCK inhibitor is necessary”.

Question: What about the “cells remaining attached / surviving 24 hours after plating” value (human ES cells [2]; completely dissociated H5181 cells, O3 medium without any additives, no ROCK inhibitor) of the same substance?
Answer: The value was “survived”.

Question: And the “adhesion at 1 day relative to Matrigel without additives” value (human ES cells [2]; without additives)?
Answer: Its value is 20 times.

Question: What about the “percentage of Oct4 positive (pluripotent) cells compared with Matrigel” value (OCT4) of the same substance?
Answer: The value was “much higher percentage”.

Question: And the “survival of Y-27632 treated cells compared with Matrigel” value (hES cells; 10 μM of Y-27632, 40,000 cells per 1 cm^2)?
Answer: Its value is “survived better”.

Question: What about the “survival compared with LN-511” value (hES cells; 24 hours, absence of ROCK inhibitor) of the same substance?
Answer: The value was “significantly higher”.

Question: What about the “survival after 24 hours relative to Matrigel” value (hES cells; dissociated hES cells) of the same substance?
Answer: The value was “approximately 20 times”.

Question: What about the “survival relative to Matrigel” value (hES cells; exogenous bFGF removed from the O3 medium) of the same substance?
Answer: Its value is 20 times.

Question: What about the “survival 24 hours after plating” value (hES cells; medium lacking bFGF, LiCl, GABA, pipecolic acid and TGFβ) of the same substance?
Answer: Its value is “survived”.

Question: What about the “survival 24 hours after plating” value (hES cells; single cell suspension, O3 medium, absence of ROCK inhibitor) of the same substance?
Answer: The value was “did so as single cells”.

Question: What about the passages cultured (human ES and iPS cells; ChiPSW cells, mTeSR1) of the same substance?
Answer: The passages cultured was 3 passages.

Question: What about the passages cultured (human ES and iPS cells; CutB1.2 iPS cells, mTeSR1) of the same substance?
Answer: Its passages cultured is 5 passages.

Question: What about the passages of proliferation (human ES and iPS cells; H1 cells, O3 medium (6 months)) of the same substance?
Answer: Its passages of proliferation is no less than 15 passages.

Question: And the passages cultured (human ES and iPS cells; H1 cells, TeSR2 (5 months))?
Answer: The passages cultured was 12 passages.

Question: And the passages of proliferation (human ES and iPS cells; HS181 cells, O3 medium (9 months))?
Answer: The passages of proliferation was “at least 24 passages”.

Question: What about the passages of proliferation (human ES and iPS cells; HS401 cells, O3 medium (2 months)) of the same substance?
Answer: Its passages of proliferation is no less than 5 passages.

Question: What about the passages cultured (human ES and iPS cells; HS401 cells, TeSR2 (1.5 months)) of the same substance?
Answer: The passages cultured was 4 passages.

Question: And the “expression of pluripotency markers Oct4, Nanog, and SSEA4” value [3]?
Answer: Its value is “stable expression levels”.

Question: And the karyotype (hES cell lines)?
Answer: Its karyotype is “normal”.
